# Experiments:
# CDT-1 = target: T1, CDT-1 (Neurospora crassa, UniProt Q7SCU1); test: uptake by yeast expressing CDT-1, residual sugar by HPAEC-PAD; type: cell-based; conditions: 100 µM sugar, 30 min, over empty-vector background
# T1 construct: pRS316-CDT1 expressed in Saccharomyces cerevisiae D452-2
# T1 sequence (Q7SCU1 1-579): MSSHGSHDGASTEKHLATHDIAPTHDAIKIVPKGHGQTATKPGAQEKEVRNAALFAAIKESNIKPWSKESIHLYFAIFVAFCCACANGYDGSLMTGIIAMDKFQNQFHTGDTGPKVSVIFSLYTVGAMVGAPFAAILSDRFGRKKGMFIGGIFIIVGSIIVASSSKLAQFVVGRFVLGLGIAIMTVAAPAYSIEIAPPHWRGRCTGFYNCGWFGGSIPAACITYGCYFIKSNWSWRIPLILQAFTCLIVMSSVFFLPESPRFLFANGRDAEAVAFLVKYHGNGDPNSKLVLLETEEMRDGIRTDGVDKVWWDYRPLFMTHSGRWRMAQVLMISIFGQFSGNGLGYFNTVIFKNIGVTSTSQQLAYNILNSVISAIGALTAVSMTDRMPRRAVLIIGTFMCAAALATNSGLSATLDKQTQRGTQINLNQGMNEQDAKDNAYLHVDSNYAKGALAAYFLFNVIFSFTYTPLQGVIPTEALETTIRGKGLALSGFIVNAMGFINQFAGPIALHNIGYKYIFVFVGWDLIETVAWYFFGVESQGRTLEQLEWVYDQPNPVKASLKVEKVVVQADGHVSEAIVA
# CDT-2 = target: T2, CDT-2 (Neurospora crassa, UniProt Q7SD12); test: uptake by yeast expressing CDT-2, residual sugar by HPAEC-PAD; type: cell-based; conditions: 100 µM sugar, 30 min
# T2 construct: pRS316-CDT2 expressed in Saccharomyces cerevisiae D452-2
# T2 sequence (Q7SD12 1-525): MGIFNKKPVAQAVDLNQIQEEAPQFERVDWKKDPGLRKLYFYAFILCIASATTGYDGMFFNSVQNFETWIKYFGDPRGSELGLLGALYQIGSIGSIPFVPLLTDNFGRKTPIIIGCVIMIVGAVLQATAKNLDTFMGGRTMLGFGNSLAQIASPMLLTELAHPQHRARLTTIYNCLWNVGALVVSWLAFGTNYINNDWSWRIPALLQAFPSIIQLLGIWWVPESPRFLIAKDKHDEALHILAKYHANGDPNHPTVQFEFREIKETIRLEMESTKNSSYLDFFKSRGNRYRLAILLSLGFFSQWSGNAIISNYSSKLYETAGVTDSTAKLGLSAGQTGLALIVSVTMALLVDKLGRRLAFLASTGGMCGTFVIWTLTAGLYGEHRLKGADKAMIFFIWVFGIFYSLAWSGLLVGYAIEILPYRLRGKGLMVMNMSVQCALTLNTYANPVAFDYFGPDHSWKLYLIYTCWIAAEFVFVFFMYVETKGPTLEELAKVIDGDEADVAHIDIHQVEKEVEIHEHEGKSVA
# GH2-1 = target: T3, GH2-1 (Neurospora crassa, UniProt Q7SFE1); test: 4-nitrophenol release, absorbance at […] nm; type: biochemical; conditions: 50 mM KP buffer pH 5.5, 37 °C, 1 h, 0.1 µg enzyme, 80 µg substrate
# T3 construct: gh2-1 cDNA in pGAPZ-B (EcoRI/XbaI), His-tagged, expressed in Pichia pastoris X-33, purified by IMAC from cell lysate; no predicted signal peptide
# T3 sequence (Q7SFE1 1-854): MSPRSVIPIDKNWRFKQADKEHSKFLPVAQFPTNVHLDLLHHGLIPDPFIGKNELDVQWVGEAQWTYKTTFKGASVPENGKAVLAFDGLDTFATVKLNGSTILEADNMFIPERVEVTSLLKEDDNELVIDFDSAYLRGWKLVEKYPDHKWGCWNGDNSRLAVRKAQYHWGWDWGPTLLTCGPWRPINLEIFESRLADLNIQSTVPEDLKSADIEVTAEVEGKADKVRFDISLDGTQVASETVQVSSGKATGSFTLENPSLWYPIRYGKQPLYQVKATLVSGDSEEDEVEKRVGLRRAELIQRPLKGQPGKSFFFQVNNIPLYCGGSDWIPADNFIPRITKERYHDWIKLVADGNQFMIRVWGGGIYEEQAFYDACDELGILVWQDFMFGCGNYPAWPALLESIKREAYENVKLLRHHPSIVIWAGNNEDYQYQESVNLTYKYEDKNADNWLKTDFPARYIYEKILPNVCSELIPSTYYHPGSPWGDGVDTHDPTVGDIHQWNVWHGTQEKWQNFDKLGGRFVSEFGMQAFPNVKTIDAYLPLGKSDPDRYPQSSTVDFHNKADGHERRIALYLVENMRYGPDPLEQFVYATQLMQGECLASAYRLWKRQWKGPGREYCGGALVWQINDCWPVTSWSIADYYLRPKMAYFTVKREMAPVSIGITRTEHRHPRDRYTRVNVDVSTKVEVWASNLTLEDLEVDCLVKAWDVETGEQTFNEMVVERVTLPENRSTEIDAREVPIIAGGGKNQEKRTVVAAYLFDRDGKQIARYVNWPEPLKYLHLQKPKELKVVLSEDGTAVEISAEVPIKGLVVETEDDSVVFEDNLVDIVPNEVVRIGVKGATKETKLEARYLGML
Compound,% remaining in supernatant (CDT-1; competes with mannobiose),"uptake by yeast expressing CDT-2, residual sugar by HPAEC-PAD (CDT-2)",% remaining in supernatant (CDT-1; competes with cellobiose),"4-nitrophenol release, absorbance at 405 nm (GH2-1)"
"OC[C@H]1O[C@@H](O[C@H]2[C@H](O)[C@@H](O)C(O)O[C@@H]2CO)[C@H](O)[C@@H](O)[C@@H]1O (some centres unmarked) [CB, cellobiose]",~ 40%,"not only cellobiose was imported by both S. cerevisiae strains, but also mannobiose",–,–
"OC[C@H]1O[C@@H](O[C@H]2[C@H](O)[C@H](O)C(O)O[C@@H]2CO)[C@@H](O)[C@@H](O)[C@@H]1O (some centres unmarked) [MB, mannobiose]",–,"not only cellobiose was imported by both S. cerevisiae strains, but also mannobiose",~ 18%,–
"O=[N+]([O-])c1ccc(O[C@@H]2O[C@H](CO)[C@@H](O)[C@H](O)[C@@H]2O)cc1 [ρNP-β-Man, 4-nitrophenyl-β-D-mannopyranoside]",–,–,–,The purified enzyme showed strong activity on ρNP-β-D-mannopyranoside with high specificity

# Reference: paper PMC6606794, “Crosstalk of Cellulose and Mannan Perception Pathways Leads to Inhibition of Cellulase Production in Several Filamentous Fungi” (mBio, 2019)
